Assay results from ChEMBL document CHEMBL5465560, “Selectivity Literature for EUbOPEN Chemogenomic Library” (2024).

Tests used:
[1] = target: T1, Dual specificity protein kinase TTK (Homo sapiens) (UniProt P33981); experiment: Selectivity interaction (Kinase panel (DSF assay)) EUB0001558a TTK
T1 sequence (whole entry): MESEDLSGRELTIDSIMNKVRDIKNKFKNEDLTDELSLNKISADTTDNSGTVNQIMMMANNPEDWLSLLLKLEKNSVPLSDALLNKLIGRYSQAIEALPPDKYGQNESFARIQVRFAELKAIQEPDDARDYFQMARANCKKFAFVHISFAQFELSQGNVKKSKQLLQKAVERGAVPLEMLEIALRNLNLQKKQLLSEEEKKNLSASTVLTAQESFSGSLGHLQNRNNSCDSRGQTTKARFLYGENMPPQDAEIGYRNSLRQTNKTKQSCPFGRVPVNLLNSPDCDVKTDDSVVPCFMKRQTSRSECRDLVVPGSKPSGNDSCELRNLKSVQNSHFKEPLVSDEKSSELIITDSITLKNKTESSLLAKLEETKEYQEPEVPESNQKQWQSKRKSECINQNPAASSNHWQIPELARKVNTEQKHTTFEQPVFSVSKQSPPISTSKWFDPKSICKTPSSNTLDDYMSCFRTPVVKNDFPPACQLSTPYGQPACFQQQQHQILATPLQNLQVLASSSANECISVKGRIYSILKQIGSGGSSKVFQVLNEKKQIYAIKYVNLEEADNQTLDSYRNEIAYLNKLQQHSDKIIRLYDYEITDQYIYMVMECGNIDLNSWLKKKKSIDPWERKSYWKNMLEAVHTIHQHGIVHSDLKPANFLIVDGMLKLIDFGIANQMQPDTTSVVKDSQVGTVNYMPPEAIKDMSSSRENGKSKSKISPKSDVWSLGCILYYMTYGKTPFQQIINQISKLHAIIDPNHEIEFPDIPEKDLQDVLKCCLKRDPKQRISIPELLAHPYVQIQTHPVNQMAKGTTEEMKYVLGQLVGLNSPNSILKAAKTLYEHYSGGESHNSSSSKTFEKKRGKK

[2] = target: Cyclin-dependent kinase 11B (Homo sapiens) (UniProt P21127); experiment: Selectivity interaction (KinomeScan (DiscoverX)) EUB0000229b CDK11B; conditions: at 10 µM
[3] = tested on: Leucine-rich repeat serine/threonine-protein kinase 2 (Homo sapiens), Q5S007 [G2019S]; experiment: (§1) Selectivity interaction (KinomeScan (DiscoverX)) EUB0000229b LRRK2; conditions: at 1 µM
[4] = target: Leucine-rich repeat serine/threonine-protein kinase 2 (Homo sapiens, UniProt Q5S007); experiment: as §1; conditions: at 10 µM
[5] = target: T2, TGF-beta receptor type-1 (Homo sapiens) (UniProt P36897); experiment: Selectivity interaction (KinomeScan (DiscoverX)) EUB0000655a TGFBR1; conditions: at 10 µM
T2 sequence (whole entry): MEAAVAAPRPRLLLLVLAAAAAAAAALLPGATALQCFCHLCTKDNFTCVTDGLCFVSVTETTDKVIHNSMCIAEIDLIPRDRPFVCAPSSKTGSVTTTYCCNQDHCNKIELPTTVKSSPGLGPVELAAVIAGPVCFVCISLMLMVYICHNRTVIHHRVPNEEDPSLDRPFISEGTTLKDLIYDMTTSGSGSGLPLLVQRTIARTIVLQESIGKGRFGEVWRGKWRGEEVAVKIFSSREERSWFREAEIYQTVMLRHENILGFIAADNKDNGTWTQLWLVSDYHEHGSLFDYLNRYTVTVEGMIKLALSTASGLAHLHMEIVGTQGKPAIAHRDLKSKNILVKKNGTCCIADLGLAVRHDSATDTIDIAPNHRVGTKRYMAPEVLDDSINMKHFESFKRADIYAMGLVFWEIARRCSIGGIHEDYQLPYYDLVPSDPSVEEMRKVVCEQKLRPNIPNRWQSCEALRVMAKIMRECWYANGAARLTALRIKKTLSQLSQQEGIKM

[6] = target: Dual specificity protein kinase CLK3 (Homo sapiens, UniProt P49761); experiment: Selectivity interaction (KinomeScan (DiscoverX)) EUB0000666a CLK3; conditions: at 10 µM
[7] = target: N-lysine methyltransferase SMYD2 (Homo sapiens) (UniProt Q9NRG4); experiment: Selectivity interaction (Transferase panel (protein, RNA, and DNA methyltransferases. and EP300 (acetyltransferase))) EUB0000270b SMYD2
[8] = target: T3, Serine/threonine-protein kinase PLK4 (Homo sapiens) (UniProt O00444); experiment: Selectivity interaction (KinomeScan (DiscoverX)) EUB0000595a PLK4; conditions: at 10 µM
T3 sequence (whole entry): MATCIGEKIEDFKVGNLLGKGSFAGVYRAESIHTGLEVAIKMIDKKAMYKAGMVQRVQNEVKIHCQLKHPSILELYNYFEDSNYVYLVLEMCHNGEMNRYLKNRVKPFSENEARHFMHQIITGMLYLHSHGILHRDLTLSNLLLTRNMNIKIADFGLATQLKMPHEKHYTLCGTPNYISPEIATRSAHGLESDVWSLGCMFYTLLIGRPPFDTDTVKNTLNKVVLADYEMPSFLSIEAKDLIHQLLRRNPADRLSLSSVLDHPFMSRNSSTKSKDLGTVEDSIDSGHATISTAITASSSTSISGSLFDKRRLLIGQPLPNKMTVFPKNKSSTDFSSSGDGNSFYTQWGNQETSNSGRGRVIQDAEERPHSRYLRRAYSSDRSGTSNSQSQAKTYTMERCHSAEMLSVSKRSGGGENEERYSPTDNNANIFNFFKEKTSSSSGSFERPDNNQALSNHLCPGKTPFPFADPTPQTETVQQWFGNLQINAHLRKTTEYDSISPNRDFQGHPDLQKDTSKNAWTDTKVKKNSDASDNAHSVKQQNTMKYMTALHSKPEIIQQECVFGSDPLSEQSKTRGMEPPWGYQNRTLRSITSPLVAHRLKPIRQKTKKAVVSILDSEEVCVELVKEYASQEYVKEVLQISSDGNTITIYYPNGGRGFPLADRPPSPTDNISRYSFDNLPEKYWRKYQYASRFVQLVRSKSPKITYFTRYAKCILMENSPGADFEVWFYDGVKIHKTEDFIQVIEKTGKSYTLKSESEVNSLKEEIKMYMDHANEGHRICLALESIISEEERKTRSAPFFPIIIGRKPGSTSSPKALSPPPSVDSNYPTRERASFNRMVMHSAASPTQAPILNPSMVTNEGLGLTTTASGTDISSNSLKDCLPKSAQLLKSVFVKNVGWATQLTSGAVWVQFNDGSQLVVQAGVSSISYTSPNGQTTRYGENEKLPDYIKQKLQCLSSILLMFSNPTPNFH

[9] = target: Histone-lysine N-methyltransferase SUV39H2 (Homo sapiens) (UniProt Q9H5I1); conditions: at 1 µM
Sequence of Histone-lysine N-methyltransferase SUV39H2 (Homo sapiens) (Q9H5I1 whole entry): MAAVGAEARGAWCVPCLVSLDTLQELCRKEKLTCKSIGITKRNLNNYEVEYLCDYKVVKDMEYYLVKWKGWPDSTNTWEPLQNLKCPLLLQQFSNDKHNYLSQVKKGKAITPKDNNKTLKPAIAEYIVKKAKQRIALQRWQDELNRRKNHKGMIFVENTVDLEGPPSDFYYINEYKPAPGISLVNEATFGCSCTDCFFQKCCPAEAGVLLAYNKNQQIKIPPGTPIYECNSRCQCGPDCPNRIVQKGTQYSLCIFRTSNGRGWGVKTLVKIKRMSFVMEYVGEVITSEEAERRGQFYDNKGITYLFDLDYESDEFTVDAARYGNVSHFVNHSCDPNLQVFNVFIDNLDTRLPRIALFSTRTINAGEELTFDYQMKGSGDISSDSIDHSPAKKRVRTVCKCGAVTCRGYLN

Sequence of N-lysine methyltransferase SMYD2 (Homo sapiens) (Q9NRG4 whole entry): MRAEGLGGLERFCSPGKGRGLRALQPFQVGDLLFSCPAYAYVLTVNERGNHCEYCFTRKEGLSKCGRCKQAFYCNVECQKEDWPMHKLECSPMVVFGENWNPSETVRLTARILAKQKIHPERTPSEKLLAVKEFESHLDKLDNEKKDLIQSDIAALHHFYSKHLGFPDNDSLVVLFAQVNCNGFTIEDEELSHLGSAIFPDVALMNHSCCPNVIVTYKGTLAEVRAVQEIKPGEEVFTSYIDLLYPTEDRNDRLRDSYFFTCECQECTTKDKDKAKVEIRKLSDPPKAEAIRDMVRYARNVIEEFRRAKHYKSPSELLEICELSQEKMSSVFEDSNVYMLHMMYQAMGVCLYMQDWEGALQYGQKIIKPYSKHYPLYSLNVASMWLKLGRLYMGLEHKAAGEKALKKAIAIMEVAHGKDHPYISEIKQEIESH
Sequence of Leucine-rich repeat serine/threonine-protein kinase 2 (Q5S007 whole entry): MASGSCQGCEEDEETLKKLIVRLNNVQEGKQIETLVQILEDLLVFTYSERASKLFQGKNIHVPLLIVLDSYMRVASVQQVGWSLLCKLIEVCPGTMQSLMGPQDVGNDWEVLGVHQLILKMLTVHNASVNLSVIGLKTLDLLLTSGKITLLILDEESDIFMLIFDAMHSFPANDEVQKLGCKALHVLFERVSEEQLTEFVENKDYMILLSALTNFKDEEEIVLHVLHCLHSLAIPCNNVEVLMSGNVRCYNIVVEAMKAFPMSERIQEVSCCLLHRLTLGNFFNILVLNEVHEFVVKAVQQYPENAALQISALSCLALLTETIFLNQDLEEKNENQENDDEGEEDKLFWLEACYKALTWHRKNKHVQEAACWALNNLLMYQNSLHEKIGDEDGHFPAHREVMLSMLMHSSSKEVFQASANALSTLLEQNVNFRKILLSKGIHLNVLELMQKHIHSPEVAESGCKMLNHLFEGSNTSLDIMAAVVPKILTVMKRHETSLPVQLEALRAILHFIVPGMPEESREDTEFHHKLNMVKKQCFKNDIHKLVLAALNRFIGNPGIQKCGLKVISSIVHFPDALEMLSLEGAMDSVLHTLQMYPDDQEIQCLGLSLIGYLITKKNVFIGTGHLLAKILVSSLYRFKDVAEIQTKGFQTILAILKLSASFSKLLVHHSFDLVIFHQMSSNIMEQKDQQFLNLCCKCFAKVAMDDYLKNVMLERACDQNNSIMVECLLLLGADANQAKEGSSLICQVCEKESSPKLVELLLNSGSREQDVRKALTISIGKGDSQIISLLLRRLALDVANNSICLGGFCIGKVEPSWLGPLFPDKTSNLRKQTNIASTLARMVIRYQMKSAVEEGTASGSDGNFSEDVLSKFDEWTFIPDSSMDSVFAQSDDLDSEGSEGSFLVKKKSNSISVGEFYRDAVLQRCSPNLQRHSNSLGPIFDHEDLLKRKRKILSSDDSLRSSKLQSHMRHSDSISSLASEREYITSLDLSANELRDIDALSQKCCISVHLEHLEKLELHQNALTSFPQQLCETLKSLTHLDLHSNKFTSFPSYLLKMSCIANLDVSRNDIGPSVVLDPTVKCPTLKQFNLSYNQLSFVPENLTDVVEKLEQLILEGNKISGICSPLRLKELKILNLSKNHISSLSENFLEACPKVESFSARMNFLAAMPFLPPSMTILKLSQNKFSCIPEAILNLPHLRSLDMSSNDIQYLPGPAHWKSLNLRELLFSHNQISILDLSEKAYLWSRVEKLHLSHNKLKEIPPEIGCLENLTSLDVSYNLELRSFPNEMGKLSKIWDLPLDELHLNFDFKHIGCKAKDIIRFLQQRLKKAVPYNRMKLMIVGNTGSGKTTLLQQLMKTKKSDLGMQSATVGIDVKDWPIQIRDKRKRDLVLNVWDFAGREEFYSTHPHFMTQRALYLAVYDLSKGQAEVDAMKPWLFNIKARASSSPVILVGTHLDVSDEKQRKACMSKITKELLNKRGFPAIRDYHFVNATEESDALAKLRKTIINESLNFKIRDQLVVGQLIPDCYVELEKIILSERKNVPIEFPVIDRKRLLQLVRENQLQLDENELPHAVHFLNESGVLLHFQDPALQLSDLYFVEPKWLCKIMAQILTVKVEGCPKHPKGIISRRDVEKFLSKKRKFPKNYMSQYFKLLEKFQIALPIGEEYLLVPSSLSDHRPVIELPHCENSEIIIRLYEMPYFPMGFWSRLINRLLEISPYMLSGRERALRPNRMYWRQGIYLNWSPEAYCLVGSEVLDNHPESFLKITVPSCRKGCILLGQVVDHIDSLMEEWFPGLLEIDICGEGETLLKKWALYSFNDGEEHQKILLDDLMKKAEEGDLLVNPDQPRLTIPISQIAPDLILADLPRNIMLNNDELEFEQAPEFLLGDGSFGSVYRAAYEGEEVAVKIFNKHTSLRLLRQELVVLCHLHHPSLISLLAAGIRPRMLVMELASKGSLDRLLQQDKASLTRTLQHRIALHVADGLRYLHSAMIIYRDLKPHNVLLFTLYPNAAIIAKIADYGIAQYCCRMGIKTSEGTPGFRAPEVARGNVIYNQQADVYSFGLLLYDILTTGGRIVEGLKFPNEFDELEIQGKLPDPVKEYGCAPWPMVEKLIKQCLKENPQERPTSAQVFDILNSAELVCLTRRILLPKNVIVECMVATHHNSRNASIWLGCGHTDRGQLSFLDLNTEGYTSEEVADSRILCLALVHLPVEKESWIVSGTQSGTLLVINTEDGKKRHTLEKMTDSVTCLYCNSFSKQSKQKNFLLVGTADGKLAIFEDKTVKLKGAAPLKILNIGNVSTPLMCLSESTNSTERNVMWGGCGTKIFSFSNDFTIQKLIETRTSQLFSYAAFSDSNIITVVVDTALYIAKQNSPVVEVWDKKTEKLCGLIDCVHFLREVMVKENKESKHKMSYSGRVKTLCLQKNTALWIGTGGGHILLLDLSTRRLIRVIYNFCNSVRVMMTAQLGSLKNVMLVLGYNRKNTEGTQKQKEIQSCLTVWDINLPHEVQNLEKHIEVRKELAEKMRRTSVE
Sequence of Cyclin-dependent kinase 11B (Homo sapiens) (P21127 whole entry): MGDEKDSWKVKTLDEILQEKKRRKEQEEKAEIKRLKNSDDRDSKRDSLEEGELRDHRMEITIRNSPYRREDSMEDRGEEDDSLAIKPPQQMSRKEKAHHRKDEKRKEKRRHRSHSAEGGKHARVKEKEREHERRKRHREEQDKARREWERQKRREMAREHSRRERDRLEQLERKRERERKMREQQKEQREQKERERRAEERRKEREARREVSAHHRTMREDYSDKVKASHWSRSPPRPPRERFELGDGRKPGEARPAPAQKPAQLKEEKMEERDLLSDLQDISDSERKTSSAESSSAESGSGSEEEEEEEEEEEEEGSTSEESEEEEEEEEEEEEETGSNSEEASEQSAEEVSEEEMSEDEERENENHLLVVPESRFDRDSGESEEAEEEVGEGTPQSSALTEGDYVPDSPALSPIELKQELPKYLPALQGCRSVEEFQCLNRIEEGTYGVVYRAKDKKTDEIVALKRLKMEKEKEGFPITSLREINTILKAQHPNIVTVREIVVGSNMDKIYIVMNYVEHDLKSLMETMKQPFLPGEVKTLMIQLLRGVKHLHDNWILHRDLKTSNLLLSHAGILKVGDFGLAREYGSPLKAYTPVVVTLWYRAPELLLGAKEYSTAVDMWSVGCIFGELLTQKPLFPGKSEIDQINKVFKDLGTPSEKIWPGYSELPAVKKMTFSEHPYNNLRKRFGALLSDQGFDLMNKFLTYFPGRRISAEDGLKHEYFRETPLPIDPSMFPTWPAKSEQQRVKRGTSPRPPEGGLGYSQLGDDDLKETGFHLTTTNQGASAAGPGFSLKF
Sequence of Leucine-rich repeat serine/threonine-protein kinase 2 (Homo sapiens), Q5S007 [G2019S] (Q5S007 whole entry G2019S): as the sequence (Q5S007 whole entry) above, with G2019S counted along it
Sequence of Dual specificity protein kinase CLK3 (P49761 whole entry, looked up): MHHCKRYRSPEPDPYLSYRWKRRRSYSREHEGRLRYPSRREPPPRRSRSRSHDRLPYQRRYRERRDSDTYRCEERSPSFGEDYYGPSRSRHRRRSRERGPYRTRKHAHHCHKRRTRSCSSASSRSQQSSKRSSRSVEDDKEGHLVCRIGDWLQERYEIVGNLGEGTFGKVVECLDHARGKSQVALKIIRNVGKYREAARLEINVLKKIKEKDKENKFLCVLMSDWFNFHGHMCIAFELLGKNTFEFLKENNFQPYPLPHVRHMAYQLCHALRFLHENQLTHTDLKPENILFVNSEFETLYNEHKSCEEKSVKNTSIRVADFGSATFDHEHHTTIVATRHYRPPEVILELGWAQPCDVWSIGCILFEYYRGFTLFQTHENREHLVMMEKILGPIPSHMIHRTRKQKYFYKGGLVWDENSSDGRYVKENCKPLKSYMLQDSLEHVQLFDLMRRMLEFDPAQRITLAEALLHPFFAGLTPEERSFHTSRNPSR

CC(C)(O)[C@H](F)CN1Cc2cc(NC(=O)c3cnn4cccnc34)c(N3CCOCC3)cc2C1=O
dTM [1]: 0.3 K

COc1cc(N(C)c2ccnc3ccc(C(F)(F)F)cc23)cc(OC)c1OC
% binding [2]: 85% | % binding [3]: 100% | % binding [4]: 100%

CN(C)CCOc1ccc(-c2nc(-c3ccncc3)c(-c3ccc4c(c3)CC/C4=N\O)[nH]2)cc1
% of control [5]: 17%

O=C(NOC[C@H](O)CO)c1ccc(F)c(F)c1Nc1ccc(I)cc1F
% of control [6]: 100%

Cc1cc(CN)cc(C)c1-c1ncn(C)c1-c1cncn1C
% activity ([7]; at 1 µM): > 90% | % activity ([7]; at 10 µM): > 80%

COCC(=O)NC/C=C/c1ccc2ncnc(Nc3ccc(Oc4ccc(C)nc4)c(C)c3)c2c1 [CP-724714]
% of control [8]: 74%

CNCCN1CCC(c2cc(CN(C)C(=O)c3cccc(Oc4ccccc4)c3)ccn2)CC1
% activity [9]: > 90%
